In ChEMBL document CHEMBL5120791, “Triterpenes from Pholiota populnea as Cytotoxic Agents and Chemosensitizers to Overcome Multidrug Resistance of Cancer Cells” (J Nat Prod, 2022):

How the values were obtained:
COLO 205 = experiment: Cytotoxicity against human COLO 205 cells assessed as reduction in cell viability measured after 24 hrs by MTT assay; assay type: functional, cell-based; settings: COLO 205, 24 h
[1] = molecular target: ATP-dependent translocase ABCB1 (Homo sapiens, UniProt P08183); experiment: Inhibition of P-gp in human COLO 320 cells assessed as potentiation of doxorubicin-induced cytotoxicity by measuring combination index measured after 72 hrs by checkerboard assay; assay type: cell-based; settings: colo 320, 72 h
Sequence of ATP-dependent translocase ABCB1 (P08183 whole entry): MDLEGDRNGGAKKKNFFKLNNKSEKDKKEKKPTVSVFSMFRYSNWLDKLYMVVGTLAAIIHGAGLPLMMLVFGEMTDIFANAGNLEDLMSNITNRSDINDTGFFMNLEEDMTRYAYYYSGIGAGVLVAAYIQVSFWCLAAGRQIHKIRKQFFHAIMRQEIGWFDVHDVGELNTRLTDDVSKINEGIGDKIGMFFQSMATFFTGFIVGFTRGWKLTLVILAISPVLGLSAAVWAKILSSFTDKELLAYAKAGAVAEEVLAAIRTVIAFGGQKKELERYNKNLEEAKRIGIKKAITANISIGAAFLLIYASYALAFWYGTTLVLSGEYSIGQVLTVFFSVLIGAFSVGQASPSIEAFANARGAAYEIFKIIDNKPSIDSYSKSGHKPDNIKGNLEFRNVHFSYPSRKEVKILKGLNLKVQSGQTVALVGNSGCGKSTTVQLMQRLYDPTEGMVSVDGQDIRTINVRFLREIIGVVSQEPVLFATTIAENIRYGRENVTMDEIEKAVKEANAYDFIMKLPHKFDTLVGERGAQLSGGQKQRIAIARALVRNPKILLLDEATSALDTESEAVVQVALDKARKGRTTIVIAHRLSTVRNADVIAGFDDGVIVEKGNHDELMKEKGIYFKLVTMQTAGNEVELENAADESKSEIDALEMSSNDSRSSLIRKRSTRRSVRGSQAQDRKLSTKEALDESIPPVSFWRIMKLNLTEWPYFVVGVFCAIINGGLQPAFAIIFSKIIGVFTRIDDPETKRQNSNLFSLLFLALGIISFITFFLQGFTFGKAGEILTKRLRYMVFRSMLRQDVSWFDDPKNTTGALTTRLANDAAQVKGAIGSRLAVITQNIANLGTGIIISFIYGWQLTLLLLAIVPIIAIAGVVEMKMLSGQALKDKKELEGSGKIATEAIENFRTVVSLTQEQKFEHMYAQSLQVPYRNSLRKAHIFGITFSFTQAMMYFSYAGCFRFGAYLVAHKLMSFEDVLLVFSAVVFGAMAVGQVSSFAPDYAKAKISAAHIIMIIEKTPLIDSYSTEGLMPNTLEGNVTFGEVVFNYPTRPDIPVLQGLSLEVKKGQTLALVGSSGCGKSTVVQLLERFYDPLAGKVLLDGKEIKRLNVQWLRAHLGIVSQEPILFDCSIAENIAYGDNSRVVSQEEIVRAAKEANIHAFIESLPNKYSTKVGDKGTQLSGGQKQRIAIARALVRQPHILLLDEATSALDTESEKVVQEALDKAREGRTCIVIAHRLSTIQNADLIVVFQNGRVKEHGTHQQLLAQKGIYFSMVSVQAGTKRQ

COLO 320 = experiment: Cytotoxicity against human COLO 320 cells assessed as reduction in cell viability measured after 24 hrs by MTT assay; assay type: functional, cell-based; settings: COLO 320, 24 h

CC(C)[C@@H](C)/C=C/[C@@H](C)[C@H]1CC[C@H]2C3=CC[C@H]4CC(=O)CC[C@]4(C)[C@H]3CC[C@]12C
IC50 (COLO 205): 11.6 µM | CI50 [1]: 0.521 | IC50 (COLO 320): 8.4 µM
